Assay results as given in US9108921B2, “Therapeutic compounds and compositions” (AGIOS PHARMACEUTICALS, INC, priority 2014, dated 2015).

Key:
Assay type in all cases: biochemical
[1] = target: PKR R510Q (Homo sapiens, UniProt P30613, R510Q); test: PKR Mutant Assay, AC50 against PKR R510Q; settings: mutant PKR R510Q enzyme
Experimental: (§1) • PKR or PKR mutant enzyme solution was diluted in assay buffer. • 2 μL of test compound was added into wells first, and then 180 μL reaction mix was added. • Reactions mixture with test compound was assembled except for ADP, and plates were stored for 60 minutes at room temperature. • 20 uL ADP was added to start reaction at room temperature and reaction progress was measured as changes in absorbance at 340 nm wavelength at room temperature.
(§2) Test Compound Preparation: • Test compound stock was made at 100× concentration in 100% DMSO (10 mM) • 1 to 3 dilutions were made for 11 points (i.e. 50 μl of first concentration added to 100 μl 100% DMSO to yield 3.33 mM, 50 μl of this added to 100 μl DMSO to yield 1.11 mM, and so forth) • 1 to 100 dilution into assay (2 μl in 200 μl) yielded starting concentration of 100 μM, decreasing 3 fold for 11 points. Assay Buffer: 100 mM KCl, 50 mM Tris 7.5, 5 mM MgCl2, 1 mM DTT, 0.03% BSA Reaction Mixture: PKR mutant enzyme: 80-400 ng/well; ADP: 0.22-1.65 mM; PEP: 0.1-0.5 mM; NADH: 180 uM; LDH: 0.5 units (Sigma#59023); DTT: 1 mM; BSA: 0.03%.

[2] = target: PKR R532W (Homo sapiens, UniProt P30613, R532W); test: PKR Mutant Assay, AC50 against PKR R532W; settings: mutant PKR R532W enzyme
PKR R532W, sequence (P30613 whole entry R532W): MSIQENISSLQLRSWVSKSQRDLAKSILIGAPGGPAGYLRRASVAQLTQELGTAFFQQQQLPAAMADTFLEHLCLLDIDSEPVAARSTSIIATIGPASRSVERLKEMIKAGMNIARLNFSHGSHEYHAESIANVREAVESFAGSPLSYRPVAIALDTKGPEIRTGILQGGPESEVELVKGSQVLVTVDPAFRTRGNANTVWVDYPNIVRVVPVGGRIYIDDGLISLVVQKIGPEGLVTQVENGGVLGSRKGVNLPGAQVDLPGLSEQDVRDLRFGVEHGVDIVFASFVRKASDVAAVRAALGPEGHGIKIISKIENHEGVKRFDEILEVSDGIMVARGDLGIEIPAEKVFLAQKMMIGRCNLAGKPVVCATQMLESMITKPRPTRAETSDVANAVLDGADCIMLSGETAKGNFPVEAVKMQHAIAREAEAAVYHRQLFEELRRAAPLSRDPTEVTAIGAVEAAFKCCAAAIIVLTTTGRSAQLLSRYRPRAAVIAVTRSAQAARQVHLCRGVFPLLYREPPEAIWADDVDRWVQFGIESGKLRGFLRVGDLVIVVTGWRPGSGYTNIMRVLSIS
Experimental: as §1, §2

[3] = target: PKR WT (Homo sapiens, UniProt P30613); test: PKR WT enzymatic AC50 assay; settings: wild type PKR
PKR WT, sequence (P30613 whole entry): as the sequence (P30613 whole entry R532W) above, with W532R counted along it
Experimental: as §1, §2

PKR R510Q, sequence (P30613 whole entry R510Q): as the sequence (P30613 whole entry R532W) above, with R510Q, W532R counted along it

AC50 [1] [nM]	AC50 [2] [nM]	AC50 [3] [nM]	SMILES
> 10000	1010 to 10000	1010 to 10000	O=C(c1ccc(NS(=O)(=O)c2cccc3nsnc23)cc1)N1CCC(O)(c2ccccc2)CC1 [Compound 294]
101 to 1000	< 100	< 100	CC(C)CC1(O)CCN(C(=O)c2ccc(NS(=O)(=O)c3cc(F)cc4scnc34)cc2)CC1 [Compound 202, 6-fluoro-N-(4-(4-hydroxy-4-isobutylpiperidine-1-carbonyl)phenyl)benzo[d]thiazole-4-sulfonamide]
> 10000	> 10000	1010 to 10000	Nc1nc2cc(S(=O)(=O)Nc3ccc(C(=O)N4CCC(O)(c5ccccc5Cl)CC4)cc3)c(F)cc2s1 [Compound 418]
1010 to 10000	101 to 1000	101 to 1000	O=C(c1ccc(NS(=O)(=O)c2cccc3cccnc23)cc1)N1CCC(O)(CCCO)CC1 [Compound 253, N-(4-(4-hydroxy-4-(3-hydroxypropyl)piperidine-1-carbonyl)phenyl)quinoline-8-sulfonamide]
> 10000	1010 to 10000	1010 to 10000	O=C(c1ccc(NS(=O)(=O)c2cccc(OC(F)(F)F)c2)cc1)N1CCC(O)(Cc2ccccc2)CC1 [Compound 307]
101 to 1000	101 to 1000	101 to 1000	CC(C)CC1(O)CCN(C(=O)c2ccc(NS(=O)(=O)c3ccc(F)c4nccnc34)cc2)CC1 [Compound 242]
101 to 1000	101 to 1000	101 to 1000	O=C(c1ccc(NS(=O)(=O)c2cccc3nccnc23)c(F)c1)N1CCC(O)(c2cccc(F)c2F)CC1 [Compound 262, N-(4-(4-(2,3-difluorophenyl)-4-hydroxypiperidine-1-carbonyl)-2-fluorophenyl)quinoxaline-5-sulfonamide]
101 to 1000	101 to 1000	101 to 1000	Cc1nc2c(S(=O)(=O)Nc3ccc(C(=O)N4CCC(O)(CC(C)C)CC4)cc3)cccc2o1 [Compound 384, N-(4-(4-hydroxy-4-isobutylpiperidine-1-carbonyl)phenyl)-2-methylbenzo[d]oxazole-4-sulfonamide]
1010 to 10000	1010 to 10000	1010 to 10000	O=C(c1ccc(NS(=O)(=O)c2ccccc2C(F)(F)F)cc1)N1CCC(O)(Cc2ccccc2)CC1 [Compound 297]
1010 to 10000	101 to 1000	101 to 1000	O=C(c1ccc(NS(=O)(=O)c2cccc3csnc23)cc1)N1CCC(O)(c2ccccc2Cl)CC1 [Compound 244, N-(4-(4-(2-chlorophenyl)-4-hydroxypiperidine-1-carbonyl)phenyl)benzo[c]isothiazole-7-sulfonamide]
101 to 1000	101 to 1000	101 to 1000	CC(C)CC1(O)CCN(C(=O)c2ccc(NS(=O)(=O)c3cccc4cccnc34)c(C(F)F)c2)CC1 [Compound 258]
1010 to 10000	101 to 1000	101 to 1000	CN1C(=O)C=C2C=C(S(=O)(=O)Nc3ccc(C(=O)N4CCC(O)(Cc5ccccc5)CC4)cc3)C=CC21 (stereo not drawn) [Compound 268]
101 to 1000	< 100	< 100	CC(C)CC1(CO)CCN(C(=O)c2ccc(NS(=O)(=O)c3cccc4scnc34)cc2)CC1 [Compound 216, N-(4-(4-(hydroxymethyl)-4-isobutylpiperidine-1-carbonyl)phenyl)benzo[d]thiazole-4-sulfonamide]
101 to 1000	101 to 1000	101 to 1000	O=C(c1ccc(NS(=O)(=O)c2cccc3nccnc23)cc1)N1CCC(O)(CCC(F)F)CC1 [Compound 230, N-(4-(4-(3,3-difluoropropyl)-4-hydroxypiperidine-1-carbonyl)phenyl)quinoxaline-5-sulfonamide]
1010 to 10000	101 to 1000	101 to 1000	CC(C)CC1(O)CCN(C(=O)c2ccc(NS(=O)(=O)c3csc4cccnc34)cc2)CC1 [Compound 269]
> 10000	1010 to 10000	1010 to 10000	O=C(c1ccc(NS(=O)(=O)c2cccc3cccnc23)nc1)N1CCC(O)(c2ccccc2)CC1 [Compound 306]
101 to 1000	101 to 1000	101 to 1000	O=C(c1ccc(NS(=O)(=O)c2cccc3scnc23)cc1)N1CCC(O)(CCC(F)(F)F)CC1 [Compound 233, N-(4-(4-hydroxy-4-(3,3,3-trifluoropropyl)piperidine-1-carbonyl)phenyl)benzo[d]thiazole-4-sulfonamide]
> 10000	> 10000	> 10000	O=C(c1ccc(NS(=O)(=O)Cc2ccccn2)cc1)N1CCC(O)(c2ccccc2Cl)CC1 [Compound 322]

AC50 [1] [nM]	AC50 [2] [nM]	AC50 [3] [nM]	SMILES
< 100	< 100	< 100	O=C(c1ccc(NS(=O)(=O)c2ccc(F)c3cccnc23)cc1)N1CCC(O)(Cc2ccccc2F)CC1 [Compound 158, 5-fluoro-N-(4-(4-(2-fluorobenzyl)-4-hydroxypiperidine-1-carbonyl)phenyl)quinoline-8-sulfonamide]
101 to 1000	101 to 1000	< 100	O=C(c1ccc(NS(=O)(=O)c2cccc3cccnc23)cc1)N1CCC(O)(/C=C/C(F)F)CC1 [Compound 200]
101 to 1000	101 to 1000	101 to 1000	O=C(c1ccc(NS(=O)(=O)c2cccc3scnc23)cc1)N1CCC(O)(CCC(F)F)CC1 [Compound 235, N-(4-(4-(3,3-difluoropropyl)-4-hydroxypiperidine-1-carbonyl)phenyl)benzo[d]thiazole-4-sulfonamide]
> 10000	1010 to 10000	1010 to 10000	O=C(c1ccc(NS(=O)(=O)c2c(F)ccc3ncsc23)cc1)N1CCC(O)(c2ccccc2Cl)CC1 [Compound 303]
1010 to 10000	101 to 1000	101 to 1000	O=C(c1ccc(NS(=O)(=O)c2cccc3scnc23)cc1)N1CCC(O)(c2ccccc2-c2ccccc2Cl)CC1 [Compound 271]
101 to 1000	101 to 1000	101 to 1000	CC(F)(F)CC1(O)CCN(C(=O)c2ccc(NS(=O)(=O)c3cccc4scnc34)cc2)CC1 [Compound 413]
> 10000	> 10000	> 10000	CC(C)CC1(O)CCN(C(=O)c2ccc(NS(=O)(=O)Cc3ccccn3)cc2)CC1 [Compound 324]
> 10000	1010 to 10000	1010 to 10000	O=C(c1ccc(NS(=O)(=O)c2cccc3snnc23)cc1)N1CCC(O)(c2ccccc2Cl)CC1 [Compound 417]
1010 to 10000	101 to 1000	101 to 1000	Nc1c(F)ccc(S(=O)(=O)Nc2ccc(C(=O)N3CCC(O)(c4ccccc4Cl)CC3)cc2)c1N [Compound 256, 2,3-diamino-N-(4-(4-(2-chlorophenyl)-4-hydroxypiperidine-1-carbonyl)phenyl)-4-fluorobenzenesulfonamide]
1010 to 10000	101 to 1000	101 to 1000	O=C(c1ccc(NS(=O)(=O)c2cccc3cccnc23)cc1)N1CCC(O)(c2ccnc(F)c2)CC1 [Compound 247, N-[4-[4-(2-fluoropyridin-4-yl)-4-hydroxy-piperidine-1-carbonyl]phenyl]quinoline-8-sulfonamide]
1010 to 10000	101 to 1000	101 to 1000	CC(C)CC1(O)CCN(C(=O)c2ccc(NS(=O)(=O)c3cccc4csnc34)cc2)CC1 [Compound 257]
1010 to 10000	101 to 1000	101 to 1000	CC(C)CC1(O)CCN(C(=O)c2ccc(NS(=O)(=O)c3ccc(O)c4nccnc34)cc2)CC1 [Compound 289]
101 to 1000	< 100	< 100	C=C(C)CC1(O)CCN(C(=O)c2ccc(NS(=O)(=O)c3cccc4scnc34)cc2)CC1 [Compound 181, N-(4-(4-hydroxy-4-(2-methylallyl)piperidine-1-carbonyl)phenyl)benzo[d]thiazole-4-sulfonamide]
101 to 1000	101 to 1000	101 to 1000	O=C(c1ccc(NS(=O)(=O)c2cccc3scnc23)cc1)N1CCC(O)(COCC(F)(F)F)CC1 [Compound 386, N-(4-(4-hydroxy-4-((2,2,2-trifluoroethoxy)methyl)piperidine-1-carbonyl)phenyl)benzo[d]thiazole-4-sulfonamide]
> 10000	> 10000	1010 to 10000	CC(C)CC1(O)CCN(C(=O)c2ccc(NS(=O)(=O)c3ccnc4scnc34)cc2)CC1 [Compound 314]
> 10000	1010 to 10000	1010 to 10000	CC(C)CC1(O)CCN(C(=O)c2ccc(NS(=O)(=O)c3c(F)ccc4ncsc34)cc2)CC1 [Compound 309]
101 to 1000	< 100	< 100	O=C(c1ccc(NS(=O)(=O)c2cccc3scnc23)cc1)N1CCC(O)(CC2CC2)CC1 [Compound 198, N-(4-(4-(cyclopropylmethyl)-4-hydroxypiperidine-1-carbonyl)phenyl)benzo[d]thiazole-4-sulfonamide]
1010 to 10000	101 to 1000	101 to 1000	N#Cc1ccc(C2(O)CCN(C(=O)c3ccc(NS(=O)(=O)c4cccc5cccnc45)cc3)CC2)cc1 [Compound 255, N-[4-[4-(4-cyanophenyl)-4-hydroxy-piperidine-1-carbonyl]phenyl]quinoline-8-sulfonamide]
